Numbering of substitutions follows the chain as printed. Active and inactive are the calls of the source. The rule behind the calls is not given here.
What was measured:
[1] = test system: T1, Tyrosine-protein phosphatase non-receptor type 7 (Homo sapiens), P35236 [P171C,V205C]; experiment: Inhibition of allosterically sensitized mutant form of His6-tagged human HePTP catalytic domain using pNPP as substrate incubated for 90 mins by quenched phosphatase activity assay
T1 sequence (whole entry): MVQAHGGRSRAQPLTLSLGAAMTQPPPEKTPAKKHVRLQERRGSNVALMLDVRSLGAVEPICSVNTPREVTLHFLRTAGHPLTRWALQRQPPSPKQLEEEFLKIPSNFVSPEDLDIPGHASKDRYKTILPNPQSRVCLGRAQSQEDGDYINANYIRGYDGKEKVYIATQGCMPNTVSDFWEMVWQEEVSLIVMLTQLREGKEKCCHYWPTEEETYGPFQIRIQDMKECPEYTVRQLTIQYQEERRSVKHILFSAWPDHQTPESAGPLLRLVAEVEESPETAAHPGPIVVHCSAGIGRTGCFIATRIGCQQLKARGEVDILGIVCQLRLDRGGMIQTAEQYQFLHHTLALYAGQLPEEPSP

[2] = test system: T1, Tyrosine-protein phosphatase non-receptor type 7 (Homo sapiens), P35236 [P171C,V205C]; experiment: Inhibition of allosterically sensitized mutant form of His6-tagged human HePTP catalytic domain at 1 uM using pNPP as substrate measured up to 10 mins by quenched phosphatase activity assay
[3] = target: Tyrosine-protein phosphatase non-receptor type 7 (Homo sapiens, UniProt P35236, P171C/V205C); experiment: Inhibition of allosterically sensitized mutant form of His6-tagged human HePTP catalytic domain overexpressed in Escherichia coli crude cell lysate using pNPP as substrate incubated for 90 mins by quenched phosphatase activity assay
[4] = test system: T1, Tyrosine-protein phosphatase non-receptor type 7 (Homo sapiens), P35236 [P171C,V205C]; experiment: Inhibition of allosterically sensitized mutant form of His6-tagged human HePTP catalytic domain overexpressed in Escherichia coli BL21(DE3) cells using pNPP as substrate incubated for 90 mins by quenched phosphatase activity assay
[5] = test system: T1, Tyrosine-protein phosphatase non-receptor type 7 (Homo sapiens), P35236 [P171C,V205C]; experiment: Binding affinity to allosterically sensitized mutant form of His6-tagged human HePTP catalytic domain overexpressed in Escherichia coli BL21(DE3) cells at 50 to 100 uM after 90 mins by SDS-PAGE analysis
[6] = target: T2, Tyrosine-protein phosphatase non-receptor type 7 (Homo sapiens) (UniProt P35236); experiment: Inhibition of His6-tagged wild type human HePTP catalytic domain overexpressed in Escherichia coli BL21(DE3) cells at 25 uM using pNPP as substrate incubated for 90 mins by quenched phosphatase activity assay
T2 sequence (whole entry): T1 sequence (whole entry) with C171P, C205V

[7] = target: T3, Tyrosine-protein phosphatase non-receptor type 1 (Homo sapiens, UniProt P18031, A122C/P87C); experiment: Inhibition of allosterically sensitized His6-tagged human PTP1B catalytic domain P87C/A122C mutant using pNPP as substrate incubated for 90 mins by quenched phosphatase activity assay
[8] = test system: T4, Tyrosine-protein phosphatase non-receptor type 1 (Homo sapiens), P18031 [P87C,A122C]; experiment: Inhibition of allosterically sensitized His6-tagged human PTP1B catalytic domain P87C/A122C mutant at 2000 nM using pNPP as substrate incubated for 10 to 40 mins by quenched phosphatase activity assay; conditions: TDE = time-dependent effect
T4 sequence (whole entry): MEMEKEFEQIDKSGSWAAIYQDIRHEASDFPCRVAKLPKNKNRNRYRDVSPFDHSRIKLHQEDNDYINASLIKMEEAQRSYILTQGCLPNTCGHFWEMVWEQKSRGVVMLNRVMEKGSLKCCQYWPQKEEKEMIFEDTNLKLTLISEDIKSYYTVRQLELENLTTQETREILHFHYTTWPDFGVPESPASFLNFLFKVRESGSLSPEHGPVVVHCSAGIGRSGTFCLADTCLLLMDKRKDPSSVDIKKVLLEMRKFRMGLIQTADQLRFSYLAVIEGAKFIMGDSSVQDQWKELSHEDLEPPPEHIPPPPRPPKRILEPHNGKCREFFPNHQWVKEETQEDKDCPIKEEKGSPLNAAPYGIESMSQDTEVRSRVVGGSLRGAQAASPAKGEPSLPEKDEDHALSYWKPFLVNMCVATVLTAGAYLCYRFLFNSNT

[9] = test system: T4, Tyrosine-protein phosphatase non-receptor type 1 (Homo sapiens), P18031 [P87C,A122C]; experiment: Inhibition of allosterically sensitized His6-tagged human PTP1B catalytic domain P87C/A122C mutant at 500 nM using DADEpYLIPQQG as substrate incubated for 90 mins by continuous phosphatase activity assay
[10] = target: T5, Tyrosine-protein phosphatase non-receptor type 1 (Homo sapiens) (UniProt P18031); experiment: Inhibition of His6-tagged human wild-type PTP1B catalytic domain at 500 nM using DADEpYLIPQQG as substrate incubated for 90 mins by continuous phosphatase activity assay
T5 sequence (whole entry): T4 sequence (whole entry) with C87P, C122A

[11] = target: T3, Tyrosine-protein phosphatase non-receptor type 1; experiment: Inhibition of allosterically sensitized His6-tagged human PTP1B catalytic domain P87C/A122C mutant overexpressed in Escherichia coli crude cell lysate using pNPP as substrate incubated for 90 mins by quenched phosphatase activity assay
[12] = target: T5, Tyrosine-protein phosphatase non-receptor type 1 (Homo sapiens); experiment: Inhibition of His6-tagged human wild-type PTP1B catalytic domain overexpressed in Escherichia coli BL21(DE3) cells at 100 uM using pNPP as substrate incubated for 90 mins by quenched phosphatase activity assay
[13] = test system: T4, Tyrosine-protein phosphatase non-receptor type 1 (Homo sapiens), P18031 [P87C,A122C]; experiment: Binding affinity to allosterically sensitized His6-tagged human PTP1B catalytic domain P87C/A122C mutant overexpressed in Escherichia coli crude cell lysate incubated for 90 mins by SDS-PAGE and LC-MS/MS method
[14] = target: T5, Tyrosine-protein phosphatase non-receptor type 1 (Homo sapiens); experiment: Binding affinity to His6-tagged human wild-type PTP1B catalytic domain overexpressed in Escherichia coli BL21(DE3) cells at 100 uM using pNPP as substrate after 90 mins by SDS-PAGE analysis

| SMILES | inhibition [1] | inhibition [2] [%] | IC50 [3] [µM] | inhibition [4] | Activity [5] | inhibition [6] | IC50 [7] [µM] | inhibition [8] | inhibition [9] | inhibition [10] | IC50 [11] [µM] | inhibition [12] | Activity [13] | Activity [14] |
| --- | --- | --- | --- | --- | --- | --- | --- | --- | --- | --- | --- | --- | --- | --- |
| O=C(O)c1ccccc1-c1c2ccc(=O)c([As]3SCCS3)c-2oc2c([As]3SCCS3)c(O)ccc12 | Dose-dependent effect | 50 | 0.25 | Dose-dependent effect | Active | inactive | – | – | – | – | – | – | – | – |
| CC1(C)C(/C=C/C=C2/N(CCCCS(=O)(=O)O)c3ccc([As]4SCCS4)cc3C2(C)C)=[N+](CCCCS(=O)(=O)O)c2ccc([As]3SCCS3)cc21 | – | – | – | – | – | – | 0.125 | Tde | Active | inactive | 0.125 | inactive | Dose-dependent effect | inactive |

Source: ChEMBL document CHEMBL4118135, “Optimized allosteric inhibition of engineered protein tyrosine phosphatases with an expanded palette of biarsenical small molecules” (Bioorg Med Chem, 2018)
